According to paper PMC5367156 (ACS chemical biology, 2016):

Molecular target: NRF2 (nuclear factor erythroid 2-related factor 2) (Homo sapiens, UniProt Q16236)
Experiment: FP displacement of fluorescein-ARE DNA from purified NRF2-MAFG
Format: binding

NRF2 (nuclear factor erythroid 2-related factor 2), sequence (O15525 whole entry): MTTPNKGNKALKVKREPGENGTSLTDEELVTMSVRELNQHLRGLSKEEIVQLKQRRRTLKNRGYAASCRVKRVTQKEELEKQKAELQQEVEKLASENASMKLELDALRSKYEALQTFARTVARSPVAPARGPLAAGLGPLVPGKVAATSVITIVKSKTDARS
NRF2 (nuclear factor erythroid 2-related factor 2), sequence (Q16236 whole entry): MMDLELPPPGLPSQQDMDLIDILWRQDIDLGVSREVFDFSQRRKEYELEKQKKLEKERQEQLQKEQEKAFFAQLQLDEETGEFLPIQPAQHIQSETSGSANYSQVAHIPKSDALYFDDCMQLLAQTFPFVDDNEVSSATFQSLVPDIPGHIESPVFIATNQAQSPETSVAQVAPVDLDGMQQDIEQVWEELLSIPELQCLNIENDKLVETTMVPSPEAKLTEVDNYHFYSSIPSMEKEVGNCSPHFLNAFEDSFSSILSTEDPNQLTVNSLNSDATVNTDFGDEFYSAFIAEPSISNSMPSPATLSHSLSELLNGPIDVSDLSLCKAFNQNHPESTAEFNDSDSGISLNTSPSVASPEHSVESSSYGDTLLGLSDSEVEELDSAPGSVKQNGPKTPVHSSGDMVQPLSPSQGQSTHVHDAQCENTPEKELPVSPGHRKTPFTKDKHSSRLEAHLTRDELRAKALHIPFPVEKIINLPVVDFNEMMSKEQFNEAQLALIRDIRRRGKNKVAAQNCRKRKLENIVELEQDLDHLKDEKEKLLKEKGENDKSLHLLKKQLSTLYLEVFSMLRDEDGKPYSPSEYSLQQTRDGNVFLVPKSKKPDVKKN

Cc1ccccc1C(=O)N1CCc2cc(-c3nc(NC(=O)Cc4ccc5c(c4)OCO5)sc3C)ccc21 [compound 2, ML385]
IC50: 1900 nM
